Assay results from publication PMC6208284 (Phytotherapy Research, 2018).

Assays:
[1] = molecular target: NADH:ubiquinone oxidoreductase (complex I), BH‐SMP (Bos taurus, UniProt P03887+P17694+P42026); format: biochemical, bovine; conditions: for IC50: read-out: IC50 Complex I BH‐SMP
Protocol: (§1) NADH:ubiquinone oxidoreductase (complex I) and succinate:ubiquinone oxidoreductase (complex II) activities were determined in 96 well‐plates using DCPIP as the electron acceptor. In each well, 200 μl of premix containing buffer (250 mM sucrose, 20 mM triethanolamine, and 1 mM EDTA, pH 7.4), DCPIP (60 μM), BSA (3.5 mg/ml for complex I and 1 mg/ml for complex II), idebenone (50 μM), and LtP‐Mit (complex I 0.17 μg/ml protein and complex II: 51 μg/ml protein) or BH‐SMP (complexes I and II: 8 μg/ml protein) were added. In addition, in the first wells, 97 μl of premix and 3 μl of EO compounds were added. Then six serial 1:3 dilutions were carried out transferring 100 μl in each step. The reaction was started by adding 50 μl of start‐mix per well, giving final concentrations of KCN (1 mM), for complex I:NADH (300 μM) or complex II:succinate (4 mM). After start of the reaction, images of the plates were recorded with a Canon EOS 300D camera (PLReader software, red–green channel) each 10 min for LtP‐Mit and 3 min for BH‐SMP (20 absorbance measurements). For each EO compound, percentage of inhibition was obtained with respect to controls (set to 100%) treated with maximum volume of vehicle (DMSO) introduced by test compound stocks.

[2] = system: Leishmania tarentolae promastigotes (LtP); assay: Immediate mitochondrial uncoupling in LtP, OxoPlates with oligomycin; format: cell-based; conditions: LtP + 5 μM Oligo, OxoPlates
Protocol: U‐shaped 96‐well OxoPlates (OP96U PreSens, Germany) with integrated fluorescence oxygen sensors were used for parallel LtP experiments. Oxygen concentrations were measured using a PerkinElmer Enspire fluorescence plate reader using excitation wavelength 540 nm and two emission wavelengths (reference dye 590 nm, IRef, and O2‐sensing dye 650 nm, IInd). The oxygen concentration (μM O2) was calculated according to manufacturer's instructions as described previously (Monzote et al., 2016). Measurements with LtP were performed in air‐saturated BHI medium. […] Immediately before the measurement, 150 μl of well‐aerated cell suspensions (13 × 10^7 LtP per ml) was added to the respective wells. Finally, on the top of each well, 50 μl of paraffin oil was layered. Two minutes after mixing, the fluorescence measurements at 27 °C were started, and eight measurements at 5‐min intervals were performed. From the linear part of the O2 decay, the slopes were calculated and corrected for the medium drift for further statistic evaluation. All measurements were performed at least in triplicate. For bioenergetic characterization, the ATP synthase inhibitor Oligo (5 μM) and as positive control CCCP (0.7–5 μM) were used. Respiratory control ratio (RCR) was calculated from respiration rate in the presence of Oligo and compounds/uncoupler divided by the rate in the presence of Oligo.

[3] = molecular target: succinate:ubiquinone oxidoreductase (complex II), LtP‐Mit (Leishmania tarentolae, UniProt A0A640KIH4+A0A640KIH8); assay: Succinate:ubiquinone oxidoreductase (complex II) activity in LtP‐Mit, DCPIP; format: biochemical; conditions: for IC50: read-out: IC50 Complex II LtP‐Mit
Protocol: as §1

[4] = system: Leishmania tarentolae promastigotes (LtP); assay: Superoxide radical detection in LtP by CMH/ESR; format: cell-based; conditions: for CM● formation (superoxide radicals) in LtP: 100 μM compound, immediate, with DFO and DTPA
Protocol: Detection of superoxide radicals was performed using CMH as reaction partner and measuring the formed stable nitroxyl radicals by electron spin resonance (ESR) spectroscopy. Measurements were performed in PBS (136 mM NaCl, 1.15 mM KH2PO4, 14 mM Na2HPO4, and 2.7 mM KCl, pH 7.4) containing 15 mM glucose, 400 μM CMH, and 100 μM DFO (desferrioxamine mesylate) and 25 μM DTPA. Usually, these assays are performed in the presence of iron chelators (DFO and DTPA) to prevent CMH interaction with free Fe^3+ leading to CM^● unrelated to superoxide radicals. Before the measurements, LtP suspensions were washed twice with PBS to remove the medium. Typical experiments contained 5 × 10^8 LtP cells/ml. Stock solutions of EO compounds dissolved in DMSO were added. The influence of Asc (6–700 μM) on the CMH oxidation rate by LtP was assessed immediately and after prolonged incubation time (1 hr between Asc and CMH addition). The influence of iron‐dependent Asc activation in LtP on CMH oxidation was studied in the absence of iron chelators DFO and DTPA. Prior to the ESR measurement, 400 μM CMH was added. Afterwards, 17 μl of suspension was aspirated in gas‐permeable Teflon tubes (ID 0.7 mm). This capillary tube was placed in the resonator of the ESR instrument (Bruker EMX, split ring MD5, Germany), and 10 sequential measurements were performed. The following instrument settings were used: microwave frequency 9.682 GHz, modulation frequency 100 kHz, modulation amplitude 1 G, time constant 0.082 s, center field 3,446 G, scan rate 71 G/min, sweep width 100 G, scan time 84 s, and attenuation CMH: 7.96 × 10^3. From the ESR spectra, the middle peak intensity was retrieved, and concentrations of oxidized CMH were obtained by comparison with a standard curve prepared from 3‐carboxy‐proxyl solutions with defined concentrations. Four replicate measurements were performed for each condition.

[5] = system: Leishmania amazonensis promastigotes (LaP); design: method as in Monzote, Garcia, et al., 2014; conditions: after 72 hr of incubation; ref Monzote, Garcia, et al., 2014; cited from earlier work
[6] = system: Leishmania tarentolae promastigotes (LtP); assay: Oxygen consumption of LtP, Clark-type electrode (immediate effect); format: cell-based; conditions: 10-200 μM tested
Protocol: Direct inhibitors of mitochondrial ETC instantaneously influence mitochondrial oxygen consumption. To assay the effect of EO compounds on oxygen consumption of LtP, a Clark‐type oxygen electrode (Hansatech, Germany) and software MCREC were used. LtP at approximately 10^8 cells/ml in YEM (25 °C) were added and treated with increasing concentrations of EO compounds between 10 and 200 μM and for EO 5.6–89.6 μg/ml. Each concentration was assayed in quadruplicates, and the results were expressed as percentage of oxygen consumption in comparison with the untreated control LtP. The highest concentration of the vehicle (1% DMSO) caused only 2% inhibition. The uncoupling effect in short‐term and long‐term (0, 6, and 24 hr) incubations with Asc (200 μM) was studied in Oligo‐inhibited (5 μM) and uncoupler‐stimulated (0.5 μM CCCP) LtP in Schneider's medium supplemented with 6 μM hemin. Four replicates were performed for each concentration.

Chain of succinate:ubiquinone oxidoreductase (complex II), LtP‐Mit (A0A640KIH4 entry or part of it): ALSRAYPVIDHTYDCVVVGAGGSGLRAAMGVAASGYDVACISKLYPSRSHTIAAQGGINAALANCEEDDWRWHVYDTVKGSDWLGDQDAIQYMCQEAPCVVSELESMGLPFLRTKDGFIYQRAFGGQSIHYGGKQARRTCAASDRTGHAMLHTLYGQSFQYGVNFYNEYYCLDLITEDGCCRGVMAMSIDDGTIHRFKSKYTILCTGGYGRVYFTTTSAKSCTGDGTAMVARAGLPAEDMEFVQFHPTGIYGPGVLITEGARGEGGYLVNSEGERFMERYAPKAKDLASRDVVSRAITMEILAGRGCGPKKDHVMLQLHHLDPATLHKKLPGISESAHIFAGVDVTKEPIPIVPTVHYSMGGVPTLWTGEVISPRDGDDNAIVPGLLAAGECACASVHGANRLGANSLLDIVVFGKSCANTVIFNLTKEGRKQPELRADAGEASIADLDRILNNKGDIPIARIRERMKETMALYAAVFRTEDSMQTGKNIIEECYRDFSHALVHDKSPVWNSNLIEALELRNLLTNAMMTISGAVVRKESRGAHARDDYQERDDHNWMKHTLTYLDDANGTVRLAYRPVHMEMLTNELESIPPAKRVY
Chain of succinate:ubiquinone oxidoreductase (complex II), LtP‐Mit (A0A640KIH8 entry or part of it): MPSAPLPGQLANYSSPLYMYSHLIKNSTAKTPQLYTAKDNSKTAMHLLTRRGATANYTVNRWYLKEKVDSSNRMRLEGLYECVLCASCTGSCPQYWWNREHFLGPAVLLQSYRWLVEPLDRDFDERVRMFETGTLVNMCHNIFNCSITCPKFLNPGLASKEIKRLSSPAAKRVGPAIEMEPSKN

Row | Structure (SMILES) | % of inhibition at highest concentration tested, Complex I BH‐SMP [1] [%] | IC50 [1] [µM] | Immediate uncoupling effect (stimulation of Oligo-inhibited oxygen consumption) [2] | % of inhibition at highest concentration tested, Complex II LtP‐Mit [3] [%] | IC50 [3] [µM] | CM● formation (superoxide radicals) in LtP [4] | CMH oxidation (superoxide radical formation) triggered in LtP ([4]; Asc 6–700 μM, 0 hr vs 1 hr incubation, with/without iron chelators) | Membrane potential of LaP (JC‐1) [5] | Inhibition of LtP oxygen consumption (in words) [6] | Oxygen consumption on top of the inhibition by Oligo ([2]; highest concentration 200 μM) | IC50 ([6]; Leishmania tarentolae, read-out: IC50, inhibition of LtP oxygen consumption) [µM]
1 | CC(C)C12C=CC(C)(CC1)OO2 (centres unmarked) [Asc, ascaridole] | 5.1 | > 100 | Neither Car nor Asc (Figure 6a,b) showed an uncoupling effect | 17.6 | > 100 | only slightly increased | increasingly effective upon prolonged incubation and in the absence of iron chelators | decrease | failed to strongly inhibit oxygen consumption | – | –
2 | Cc1ccc(C(C)C)cc1O [Car, carvacrol] | 13.3 | > 100 | Neither Car nor Asc (Figure 6a,b) showed an uncoupling effect | 8.8 | > 100 | – | – | – | failed to strongly inhibit oxygen consumption | – | –
3 | C=C1CC[C@H]2O[C@]2(C)CC[C@@H]2[C@@H]1CC2(C)C [Caryo, caryophyllene oxide] | 39.7 | > 100 | – | 12.3 | > 100 | only slightly increased | – | – | strongly inhibited LtP oxygen consumption | totally inhibited the oxygen consumption | 98 ± 2
